From ChEMBL document CHEMBL3351906, “Bioactive triterpenoid saponins and phenolic compounds against glioma cells” (Bioorg Med Chem Lett, 2014)

What was measured:
[1] = test system: U-251; test: Inhibition of cell proliferation of human U251 cells assessed as cell viability at 100 uM after 72 hrs by sulforhodamine B assay; assay type: functional; settings: U-251, 72 h, read-out: Activity
[2] = test system: C6; test: Inhibition of cell proliferation of rat C6 cells assessed as cell viability at 100 uM after 72 hrs by sulforhodamine B assay; assay type: functional; settings: C6, 72 h, read-out: Activity

| Compound | viability at 100 µM [1] | viability at 100 µM [2] |
| --- | --- | --- |
| CC(C)=CCC[C@](C)(O[C@@H]1O[C@H](CO)[C@@H](O)[C@H](O)[C@H]1O)[C@H]1CC[C@]2(C)[C@@H]1[C@H](O)C[C@@H]1[C@@]3(C)CC[C@H](O)C(C)(C)[C@@H]3[C@@H](O)C[C@]12C [GINSENOSIDE F1] | 80.9% | 92% |
| CC(C)=CCC[C@](C)(O[C@@H]1O[C@H](CO)[C@@H](O)[C@H](O)[C@H]1O)[C@H]1CC[C@]2(C)[C@@H]1[C@H](O)C[C@@H]1[C@@]3(C)CC[C@H](O[C@@H]4O[C@H](CO)[C@@H](O)[C@H](O)[C@H]4O[C@@H]4O[C@H](CO)[C@@H](O)[C@H](O)[C@H]4O)C(C)(C)[C@@H]3[C@@H](O)C[C@]12C | 94.5% | 97.5% |
| CC(C)=CCC[C@](C)(O)[C@H]1CC[C@]2(C)[C@@H]1[C@H](O)C[C@@H]1[C@@]3(C)CC[C@H](O)C(C)(C)[C@@H]3[C@@H](O[C@@H]3O[C@H](CO)[C@@H](O)[C@H](O)[C@H]3O[C@@H]3OC[C@@H](O)[C@H](O)[C@H]3O)C[C@]12C | 108% | 59.3% |
| O=C(/C=C/c1ccc(O)c(O)c1)O[C@H]1[C@H](O)C[C@@](O)(C(=O)O)C[C@H]1O | 52.8% | 133% |
| COc1c(O)ccc(O)c1-c1cc(=O)c2c(O)cc(O)c(OC)c2o1 | 87.5% | 57.7% |
| CC(C)=CCC[C@](C)(O[C@@H]1O[C@H](CO[C@@H]2O[C@H](CO)[C@@H](O)[C@H](O)[C@H]2O)[C@@H](O)[C@H](O)[C@H]1O)[C@H]1CC[C@]2(C)[C@@H]1[C@H](O)C[C@@H]1[C@@]3(C)CC[C@H](O[C@@H]4O[C@H](CO)[C@@H](O)[C@H](O)[C@H]4O[C@@H]4O[C@H](CO)[C@@H](O)[C@H](O)[C@H]4O)C(C)(C)[C@@H]3CC[C@]12C [GINSENOSIDE RB1] | 76.1% | 79% |
| CC(C)=CCC[C@](C)(O[C@@H]1O[C@H](CO[C@H]2O[C@H](CO)[C@@H](O)[C@@H]2O)[C@@H](O)[C@H](O)[C@H]1O)[C@H]1CC[C@]2(C)[C@@H]1[C@H](O)C[C@@H]1[C@@]3(C)CC[C@H](O)C(C)(C)[C@@H]3[C@@H](O)C[C@]12C [GINSENOSIDE F5] | 102% | 92.8% |
| CC(C)=CCC[C@](C)(O[C@@H]1O[C@H](CO[C@@H]2O[C@H](CO)[C@@H](O)[C@H](O)[C@H]2O)[C@@H](O)[C@H](O)[C@H]1O)[C@H]1CC[C@]2(C)[C@@H]1[C@H](O)C[C@@H]1[C@@]3(C)CC[C@H](O[C@@H]4O[C@H](CO)[C@@H](O)[C@H](O)[C@H]4O)C(C)(C)[C@@H]3CC[C@]12C [GYPENOSIDE XVII] | 86.5% | 80.8% |
| O=C(/C=C/c1ccc(O)c(O)c1)O[C@H](Cc1ccc(O)c(O)c1)C(=O)O [ROSMARINIC ACID] | 70.8% | 54.5% |
| CC(C)=CCC[C@](C)(O[C@@H]1O[C@H](CO)[C@@H](O)[C@H](O)[C@H]1O)[C@H]1CC[C@]2(C)[C@@H]1[C@H](O)C[C@@H]1[C@@]3(C)CC[C@H](O[C@@H]4O[C@H](CO)[C@@H](O)[C@H](O)[C@H]4O[C@@H]4O[C@H](CO)[C@@H](O)[C@H](O)[C@H]4O)C(C)(C)[C@@H]3CC[C@]12C [GINSENOSIDE RD] | 78.4% | 102% |
| CC(C)=CCC[C@](C)(O[C@@H]1O[C@H](CO[C@@H]2OC[C@@H](O)[C@H](O)[C@H]2O)[C@@H](O)[C@H](O)[C@H]1O)[C@H]1CC[C@]2(C)[C@@H]1[C@H](O)C[C@@H]1[C@@]3(C)CC[C@H](O[C@@H]4O[C@H](CO)[C@@H](O)[C@H](O)[C@H]4O[C@@H]4O[C@H](CO)[C@@H](O)[C@H](O)[C@H]4O)C(C)(C)[C@@H]3CC[C@]12C [GINSENOSIDE RB3] | 95.1% | 57.8% |
| CC(C)=CCC[C@](C)(O)[C@H]1CC[C@]2(C)[C@@H]1[C@H](O)C[C@@H]1[C@@]3(C)CC[C@H](O[C@@H]4O[C@H](CO)[C@@H](O)[C@H](O)[C@H]4O[C@@H]4O[C@H](CO)[C@@H](O)[C@H](O)[C@H]4O)C(C)(C)[C@@H]3CC[C@]12C | 99.1% | 53.1% |
| C[C@@H]1O[C@@H](OC[C@H]2O[C@@H](Oc3c(-c4ccc(O)c(O)c4)oc4cc(O)cc(O)c4c3=O)[C@H](O)[C@@H](O)[C@@H]2O)[C@H](O)[C@H](O)[C@H]1O [RUTIN] | 61.5% | 62.1% |
| CC1(C)CC[C@]2(C(=O)O)[C@H](O)C[C@]3(C)C(=CC[C@@H]4[C@@]5(C)CC[C@H](O)C(C)(C)[C@@H]5CC[C@]43C)[C@H]2C1 [ECHINOCYSTIC ACID] | 33.7% | 52.3% |
| CC(C)=CC/C=C(/C)[C@H]1CC[C@]2(C)[C@@H]1[C@H](O)C[C@@H]1[C@@]3(C)CC[C@H](O)C(C)(C)[C@@H]3[C@@H](O)C[C@]12C | 92.7% | 75.6% |
| C/C=C(/C)C(=O)O[C@H]1[C@H](O)[C@]2(CO)[C@H](O)C[C@]3(C)C(=CC[C@@H]4[C@@]5(C)CC[C@H](O[C@@H]6O[C@H](C(=O)O)[C@@H](O[C@@H]7O[C@H](CO)[C@@H](O)[C@H](O)[C@H]7O)[C@H](O)[C@H]6O[C@@H]6O[C@H](CO)[C@@H](O)[C@H](O)[C@H]6O)[C@](C)(CO)[C@@H]5CC[C@]43C)[C@@H]2CC1(C)C | 94.6% | 90.7% |
| CC1(C)CC[C@]2(C(=O)O)CC[C@]3(C)C(=CC[C@@H]4[C@@]5(C)CC[C@H](O)C(C)(C)[C@@H]5CC[C@]43C)[C@@H]2C1 [OLEANOLIC_ACID] | 67.8% | 59.2% |
| O=C(O)[C@H]1O[C@@H](Oc2cc3oc(-c4ccccc4)cc(=O)c3c(O)c2O)[C@H](O)[C@@H](O)[C@@H]1O [BAICALIN] | 91.8% | 80.4% |
| CC(C)=CCC[C@](C)(O[C@@H]1O[C@H](CO[C@@H]2OC[C@H](O)[C@H](O)[C@H]2O)[C@@H](O)[C@H](O)[C@H]1O)[C@H]1CC[C@]2(C)[C@@H]1[C@H](O)C[C@@H]1[C@@]3(C)CC[C@H](O)C(C)(C)[C@@H]3[C@@H](O)C[C@]12C [GINSENOSIDE F3] | 104% | 93.6% |
| O=C(/C=C/c1ccc(O)c(O)c1)O[C@H]1[C@H](O)C[C@](O)(C(=O)O)C[C@H]1OC(=O)/C=C/c1ccc(O)c(O)c1 | 119% | 46% |
| C/C=C/C(=O)OC[C@H]1O[C@@H](O[C@H]2[C@H](O[C@H]3CC[C@]4(C)[C@H]5C[C@@H](O)[C@@H]6[C@@H]([C@](C)(CCC=C(C)C)O[C@@H]7O[C@H](CO[C@@H]8O[C@H](CO)[C@@H](O)[C@H](O)[C@H]8O)[C@@H](O)[C@H](O)[C@H]7O)CC[C@@]6(C)[C@]5(C)CC[C@H]4C3(C)C)O[C@H](CO)[C@@H](O)[C@@H]2O)[C@H](O)[C@@H](O)[C@@H]1O | 97.2% | 99.4% |
| O=C(/C=C/c1ccc(O)c(O)c1)O[C@@H]1C[C@](O)(C(=O)O)C[C@@H](O)[C@H]1O [CHLOROGENIC ACID] | 56.6% | 77.4% |
| CC(C)=CCC[C@@](C)(O)[C@H]1CC[C@]2(C)[C@@H]1[C@H](O)C[C@@H]1[C@@]3(C)CC[C@H](O[C@@H]4O[C@H](CO)[C@@H](O)[C@H](O)[C@H]4O[C@@H]4O[C@H](CO)[C@@H](O)[C@H](O)[C@H]4O)C(C)(C)[C@@H]3CC[C@]12C | 77.5% | 97.2% |
| CC(C)=CCC[C@](C)(O[C@@H]1O[C@H](CO)[C@@H](O)[C@H](O)[C@H]1O)[C@H]1CC[C@]2(C)[C@@H]1[C@H](O)C[C@@H]1[C@@]3(C)CC[C@H](O[C@@H]4O[C@H](CO)[C@@H](O)[C@H](O)[C@H]4O)C(C)(C)[C@@H]3CC[C@]12C [GINSENOSIDE F2] | 64.6% | 117% |
| CC(C)=CCC[C@@](C)(O)[C@H]1CC[C@]2(C)[C@@H]1[C@H](O)C[C@@H]1[C@@]3(C)CC[C@H](O)C(C)(C)[C@@H]3[C@@H](O[C@@H]3O[C@H](CO)[C@@H](O)[C@H](O)[C@H]3O[C@@H]3O[C@@H](C)[C@H](O)[C@@H](O)[C@H]3O)C[C@]12C | 99% | 95.5% |
| CC(C)=CCC[C@](C)(O[C@@H]1O[C@H](CO[C@@H]2OC[C@H](O)[C@H](O)[C@H]2O)[C@@H](O)[C@H](O)[C@H]1O)[C@H]1CC[C@]2(C)[C@@H]1[C@H](O)C[C@@H]1[C@@]3(C)CC[C@H](O[C@@H]4O[C@H](CO)[C@@H](O)[C@H](O)[C@H]4O[C@@H]4O[C@H](CO)[C@@H](O)[C@H](O)[C@H]4O)C(C)(C)[C@@H]3CC[C@]12C [GINSENOSIDE RB2] | 77.5% | 80.9% |
| CC(C)=CCC[C@](C)(O[C@@H]1O[C@H](CO[C@@H]2O[C@@H](CO)[C@H](O)[C@H]2O)[C@@H](O)[C@H](O)[C@H]1O)[C@H]1CC[C@]2(C)[C@@H]1[C@H](O)C[C@@H]1[C@@]3(C)CC[C@H](O[C@@H]4O[C@H](CO)[C@@H](O)[C@H](O)[C@H]4O[C@@H]4O[C@H](CO)[C@@H](O)[C@H](O)[C@H]4O)C(C)(C)[C@@H]3CC[C@]12C [GINSENOSIDE RC] | 87.7% | 79% |
| CC(C)=CCC[C@](C)(O)[C@H]1CC[C@]2(C)[C@@H]1[C@H](O)C[C@@H]1[C@@]3(C)CC[C@H](O)C(C)(C)[C@@H]3[C@@H](O[C@@H]3O[C@H](CO)[C@@H](O)[C@H](O)[C@H]3O[C@@H]3O[C@@H](C)[C@H](O)[C@@H](O)[C@H]3O)C[C@]12C [GINSENOSIDE RG2] | 103% | 96.5% |
